Experimental data as given in patent US11596664B2, “Plant extracts made of Sideritis and use thereof to boost cognitive performance” (Finzelberg GmbH & Co. KG, priority 2010, dated 2023).

Test system: serotonin absorption (serotonergic re-uptake)
Assay: Serotonin absorption inhibition, test system according to EP 1 634 602
Format: biochemical
Conditions: reference substance at 10 μm; defines 100%
From the text: Serotonergic neurotransmission being influenced is described for plants of the genus Sideritis in the patent application EP 1 634 602. […] The experimental set-up described in paragraphs [0046] to [0054] for measuring serotonergic re-uptake rates was used for initial screening of suitable species for the tests.
50 g of the herbal drug is mixed twice with 15 times the quantity of boiling water and extracted with agitation. Both maceration extracts are allowed to stand at room temperature to cool down and combined. The two combined macerations are filtered off with a fluted filter and concentrated to a soft extract using a rotary evaporator. The extractive yields determined for the different species are shown below. In order to test for the serotonin absorption inhibition, the extracts were all weighed in at the same native content and assayed with a measuring concentration of 50 μg/ml in the test system according to EP 1 634 602.
50 g of the herb Sideritis was mixed twice at 45° C. with 15 times the quantity of a mixture of water and ethanol and extracted with agitation. Both maceration extracts were allowed to stand at room temperature to cool down and combined. The two combined macerations were filtered off with a fluted filter and concentrated to a soft extract using a rotary evaporator. The extractive yields determined for the different species are shown below. […]

COCCCC/C(=N\OCCN)c1ccc(C(F)(F)F)cc1 [fluvoxamine]
Serotonin absorption inhibition, positive control: 100%
